Laboratory results from ChEMBL document CHEMBL3593211, “Digging Deep for New Compounds from the Compass Plant, Silphium laciniatum” (J Nat Prod, 2015).

System: NCI-H460
Test: Cytotoxicity against human NCI-H460 cells incubated for 72 hrs by cell-titer 96 aqueous non-radioactive cell proliferation assay
Type: functional, cell-based
Settings: NCI-H460, 72 h

Compound	IC50
CC(=O)OC/C(=C/CO)[C@@H]1C[C@@H]2[C@@]3(C)CCCC(C)(C)[C@@H]3CC[C@@]2(C)O1	> 10 µM
CC1(C)CCC[C@]2(C)[C@H]3C[C@@H](/C(=C\CO)CO)O[C@]3(C)CC[C@@H]12	> 10 µM
CC(=O)OC[C@]1([C@@H]2C[C@@H]3[C@@]4(C)CCCC(C)(C)[C@@H]4CC[C@@]3(C)O2)O[C@H]1CO	> 10 µM
CC(=O)OCC(O)(C(O)CO)[C@@H]1C[C@@H]2[C@@]3(C)CCCC(C)(C)[C@@H]3CC[C@@]2(C)O1 (some centres undefined)	> 10 µM
CC(=O)OCC(O)C(O)(CO)[C@@H]1C[C@@H]2[C@@]3(C)CCCC(C)(C)[C@@H]3CC[C@@]2(C)O1 (some centres undefined)	> 10 µM
CC1(C)CCC[C@]2(C)[C@H]3C[C@@H](C(O)(CO)C(O)CO)O[C@]3(C)CC[C@@H]12 (some centres undefined)	> 10 µM
C/C(=C\CC/C=C(\C)CC/C=C(\C)CCC(O)C(C)(C)O)C/C=C/[C@@]1(C)CC[C@@H](C(C)(C)O)O1 (some centres undefined)	9 µM
C/C(=C\CCC/C(C)=C/C(=O)C[C@@]1(C)CC[C@@H](C(C)(C)O)O1)CC/C=C(\C)CCC(O)C(C)(C)O (some centres undefined)	6 µM
CC1(C)CC[C@]2(C(=O)O)CC[C@]3(C)C(=CC[C@@H]4[C@@]5(C)CC[C@H](O[C@@H]6O[C@H](C(=O)O)[C@@H](O)[C@H](O)[C@H]6OC6O[C@H](CO)[C@@H](O)[C@H](O)[C@H]6O)C(C)(C)[C@@H]5CC[C@]43C)[C@@H]2C1 (some centres undefined)	7 µM
CC1(C)CCC[C@]2(C)[C@H]3C[C@@H]([C@@]4(CO)O[C@H]4CO)O[C@]3(C)CC[C@@H]12	> 10 µM
CC(=O)OC[C@@]1([C@@H]2C[C@@H]3[C@@]4(C)CCCC(C)(C)[C@@H]4CC[C@@]3(C)O2)O[C@@H]1CO	> 10 µM
CC1(C)CCC[C@]2(C)[C@H]3C[C@@H]([C@]4(CO)O[C@@H]4CO)O[C@]3(C)CC[C@@H]12	> 10 µM
C/C(=C\CC/C=C(\C)CC/C=C(\C)CC[C@@H](O)C(C)(C)O)CC/C=C(\C)CC[C@@H](O)C(C)(C)O	7 µM
CC1(C)CC[C@]2(C(=O)O)CC[C@]3(C)C(=CC[C@@H]4[C@@]5(C)CC[C@H](O[C@@H]6O[C@H](C(=O)O)[C@@H](O)[C@H](O)[C@H]6O)C(C)(C)[C@@H]5CC[C@]43C)[C@@H]2C1	6 µM
